Results reported in patent US12508261B2, “Methods of treating depression with vortioxetine” (Rundle Research LLC, priority 2017, dated 2025).
Several values for one entry are separate records, joined by “and”; a condition that tells them apart may be missing. Identical values can stand only once. Like-named read-outs stand apart in the source and are kept apart here.

Assays:
[1] = Clinical pharmacokinetic study (RUN-001): vortioxetine 5 mg once daily for 29 days, then 28 days washout, obese vs normal-weight subjects; type: in vivo, human; settings: for Observed Clss: (5 mg/day)/AUC29; for Predicted CLss: (5 mg/day)/Css; for Observed accumulation ratio: AUC29/AUC1; for Predicted accumulation ratio: from elimination rate constant and 1 day dose interval
Protocol: To test if the obese patients would require different washout guidelines for preventing serotonin syndrome, 16 obese subjects (BMI≥35) and 13 normal subjects (BMI<25) completed a clinical trial where they were administered daily with low doses (5 mg/day) of vortioxetine for 29 days in a controlled study. All subjects were subsequently tracked for 28 days after discontinuing vortioxetine on day 29. Blood samples were collected and processed according to standard techniques.
The normal-weight control group consisted of healthy male and female volunteers aged 18 to 45 years. Their body mass index (BMI) values fell in the range of […]. […] Normal weight and obese subjects were matched as closely as possible for gender and age.
CYP2D6 genotype status was determined from whole blood samples drawn from each subject. Known alleles of CYP2D6 were tested for, as well as the presence of gene duplications (LabCorp, Inc.). CYP2D6 metabolizer status was categorized as ultra-rapid, extensive, intermediate, or poor. Ultra-rapid and poor metabolizers were not included in the study.
All subjects received vortioxetine, 5 mg once daily in the morning, for 29 days. The first dose was on Day 1, and the last dose was on Day 29. Blood sampling continued for another 28 days after the last dose, through Day 57.
Subjects spent 12 hours in the study unit on Day 1 (first dose of vortioxetine) and Day 29 (last dose of vortioxetine). On those two study days, venous blood samples (7 mL each) were drawn prior to the dose of vortioxetine, and at 1, 2, 4, 6, 8, 10, and 12 hours after dosage.
During the 29-day period of daily vortioxetine administration, subjects returned to the study unit in the morning of the following study days: 2, 3, 5, 8, 10, 12, 15, 17, 19, 22, 24, 26, and 29. At each visit, a single venous blood sample (7 mL) was drawn before the daily dose of vortioxetine. Subjects underwent a brief interview to assess subjective effects and possible adverse events. Subjects were then discharged until the next scheduled visit. They were provided with vortioxetine doses sufficient for daily morning administration until the next visit. No more than 2 consecutive doses of vortioxetine were taken on an outpatient basis.
On Day 29 (the final dose of vortioxetine), subjects spent 12 hours in the study unit as described above. They returned to the study unit for a single blood sample on the mornings of the following Days: 30, 31, 33, 36, 38, 40, 43, 45, 47, 50, 52, 54, and 57.
Plasma concentrations of vortioxetine were determined by liquid chromatography—mass spectrometry using a Shimadzu HPLC system coupled to a Sciex API-4000 mass spectrometer.
The internal standard (vortioxetine-d8) was added to calibration standards, quality control samples, and unknown study samples. All samples were extracted with methyl tert-butyl ether. The organic phase was separated and evaporated to dryness; the reconstituted extract was injected into the HPLC system. The HPLC column was a Unison UK-C18, 50 mm×2 mm, 3 micron particle size. The mobile phase consisted of an organic component (0.1% formic acid in acetonitrile) and an aqueous component (0.1% formic acid and 2 mM ammonium acetate in water). This was delivered in gradient mode at a net flow rate of 0.4 mL/min, with the organic fraction varying from 40% to 96%. m/z monitored were: 299.1/150.1 for vortioxetine, and 307.1/153 for vortioxetine-d8. The limit of quantitation was 0.1 ng/mL. […] All samples from a given study subject were extracted and analyzed at the same time using the same calibration standards.
Based on the clinical trials discussed above, several equations were derived which allow an individual to calculate the washout period (i.e., the time between stopping vortioxetine and initiating treatment with an MAOI). Data points to consisted of pre-dose plasma vortioxetine concentration (C) on each study day (t), both during (Days 1-29) and after (Days 30-57) the period of vortioxetine administration. […]

[2] = TRINTELLIX label; cited from earlier work
[3] = Normal-weight subjects, mean ± SD

Q: For Cc1ccc(Sc2ccccc2N2CCNCC2)c(C)c1 [vortioxetine], which Css ([1]; Normal-weight subjects, 5 mg/day, mean ± SD) is on record?
A: The Css was 3.75 ± 1.72 ng/mL.

Q: What about the “Observed Clss” value [1, 3] of the same compound?
A: Its value is 903 ± 450 mL/min.

Q: What about the “Predicted CLss” value [1, 3] of the same compound?
A: Its value is 1172 ± 679 mL/min.

Q: What about the Observed accumulation ratio [1, 3] of the same compound?
A: The Observed accumulation ratio was 4.46 ± 1.10.

Q: And the Predicted accumulation ratio [1, 3]?
A: Its Predicted accumulation ratio is 3.72 ± 0.77.

Q: What about the Css ([1]; Obese subjects, 5 mg/day, mean ± SD) of the same compound?
A: Its Css is 4.23 ± 1.68 ng/mL.

Q: What about the “Observed Clss” value ([1]; Obese subjects, mean ± SD) of the same compound?
A: The value was 809 ± 331 mL/min.

Q: What about the “Predicted CLss” value ([1]; Obese subjects, mean ± SD) of the same compound?
A: The value was 935 ± 362 mL/min.

Q: And the Observed accumulation ratio ([1]; Obese subjects, mean ± SD)?
A: The Observed accumulation ratio was 5.24 ± 1.86.

Q: And the Predicted accumulation ratio ([1]; Obese subjects, mean ± SD)?
A: The Predicted accumulation ratio was 5.22 ± 1.75.

Q: And the half-life ([1]; both sexes, human, plasma, 5 mg/day, Normal-weight subjects, 5 mg/day, mean ± SD, read-out: Washout half-life (converted))?
A: The half-life was 53 h.

Q: What about the half-life ([1]; both sexes, human, plasma, 5 mg/day, Obese subjects (BMI>=35), 5 mg/day, mean ± SD, read-out: Washout half-life (converted)) of the same compound?
A: Its half-life is 78.2 h.

Q: And the half-life ([1]; both sexes, human, plasma, 5 mg/day, normal weight patients, read-out: elimination half-life (converted))?
A: Its half-life is 53 h.

Q: And the concentration at 504 h ([1]; both sexes, human, plasma, 5 mg/day, normal patients (non-obese and/or normal CYP2D6 metabolizers), read-out: vortioxetine remaining in the blood plasma 21 days after stopping)?
A: The concentration at 504 h was 0.54 ng/mL.

Q: And the AUC(0-t) ([1]; both sexes, human, plasma, oral, 5 mg/day, Normal-weight subjects, 5 mg/day, mean ± SD, read-out: AUC0-24 Day 1)?
A: The AUC(0-t) was 24.8 ± 8.1 ng·h/mL.

Q: What about the AUC(0-t) ([1]; both sexes, human, plasma, oral, 5 mg/day, Normal-weight subjects, 5 mg/day, mean ± SD, read-out: AUC0-24 Day 29) of the same compound?
A: Its AUC(0-t) is 112 ± 48.7 ng·h/mL.

Q: What about the half-life ([1]; both sexes, human, plasma, oral, 5 mg/day, Obese subjects (BMI>=35), 5 mg/day, mean ± SD, read-out: Accumulation half-life (converted)) of the same compound?
A: Its half-life is 79.7 h.

Q: And the AUC(0-t) ([1]; both sexes, human, plasma, oral, 5 mg/day, Obese subjects, 5 mg/day, mean ± SD, read-out: AUC0-24 Day 1)?
A: The AUC(0-t) was 22.6 ± 4.2 ng·h/mL.

Q: And the AUC(0-t) ([1]; both sexes, human, plasma, oral, 5 mg/day, Obese subjects, 5 mg/day, mean ± SD, read-out: AUC0-24 Day 29)?
A: The AUC(0-t) was 119 ± 46.3 ng·h/mL.

Q: And the half-life ([1]; both sexes, human, plasma, oral, 5 mg/day, normal subjects, read-out: plasma elimination half-life, range)?
A: Its half-life is 30 to 80 h.

Q: What about the half-life ([1]; both sexes, human, plasma, oral, 5 mg/day, obese subjects, read-out: plasma elimination half-life, range) of the same compound?
A: The half-life was 54 to 171 h.

Q: And the half-life ([1]; human, plasma, 5 mg/day, one obese subject, CYP2D6 intermediate metabolizer (FIG. 8), read-out: accumulation half-life (converted))?
A: Its half-life is 173 h.

Q: What about the half-life ([1]; human, plasma, 5 mg/day, one obese subject, CYP2D6 intermediate metabolizer (FIG. 8), read-out: washout half-life (converted)) of the same compound?
A: The half-life was 168 h.

Q: What about the half-life ([1]; human, plasma, im, 5 mg/day, individual subject, Normal cohort (BMI<25), IM, read-out: T1/2 (converted)) of the same compound?
A: The half-life was 71.8 h.

Q: And the half-life ([1]; human, plasma, im, 5 mg/day, individual subject, Obese cohort (BMI>=35), IM, read-out: T1/2 (converted))?
A: The half-life was 171 h.

Q: What about the Css ([1]; individual subject, Normal cohort (BMI<25), IM, 5 mg/day) of the same compound?
A: Its Css is 7.8 ng/mL.

Q: What about the Css ([1]; individual subject, Obese cohort (BMI>=35), IM, 5 mg/day) of the same compound?
A: The Css was 9.27 ng/mL.

Q: What about the Css ([1]; individual subjects, Normal cohort (BMI<25), EM, 5 mg/day) of the same compound?
A: Its Css is 2.01 ng/mL and 3.31 ng/mL and 3.29 ng/mL and 3.51 ng/mL and 4.06 ng/mL and 3.21 ng/mL and 1.4 ng/mL and 1.54 ng/mL and 5.24 ng/mL and 5.42 ng/mL and 4.14 ng/mL and 3.13 ng/mL.

Q: And the Css ([1]; individual subjects, Obese cohort (BMI>=35), EM, 5 mg/day)?
A: Its Css is 4.32 ng/mL and 4.58 ng/mL and 2.08 ng/mL and 4.57 ng/mL and 1.97 ng/mL and 3.44 ng/mL and 4.8 ng/mL and 4.75 ng/mL and 4.1 ng/mL and 3.22 ng/mL and 3.39 ng/mL and 3.38 ng/mL and 4.66 ng/mL and 4.85 ng/mL.

Q: What about the “washout period needed to attain about 0.14% of the initial plasma concentration” value ([1]; obese individuals, Equation 2) of the same compound?
A: Its value is 31.5 days.

Q: And the “time with measurable drug plasma concentrations after discontinuing vortioxetine” value ([1]; obese subjects, 5 mg/day)?
A: The value was “at least 28 days”.

Q: What about the “time to achieve steady-state plasma concentrations” value [2] of the same compound?
A: The value was ≤ 2 weeks.
